Test results: patent US20230181768A1, “TISSUE-TARGETING COMPLEX” (PHARMPUR GMBH, priority 2017, published 2023)
Entries after “also recorded” stand apart in the source; their conditions may differ. Read-outs that look alike come from different tables or passages of the source.

Assays:
[1] = test system: ILM model substrate (silk granules); details: for binding to the model substrate (in words): UV/vis, before and after treatment with model substrate; for Ratio λmax with MS and reference 632-635 nm: 632 nm (7a), 634 nm (7b, 7d), 635 nm (7c)
Experimental: To examine the binding of various dyes to the ILM model substrate, UV/vis measurements of the dyes Brilliant Blue G (BBG), compounds 7a-d, and Indocyanine green (ICG) were performed at various concentrations both before and after treatment with the model substrate. The aim of these measurements is to compare the binding strength of the individual dyes.
Stock solutions of the dyes with a concentration of 5 mg/mL were prepared using phosphate-buffered saline (PBS) at physiological pH 7.4.
To ensure measurement is as accurate as possible, the dye-model substrate solutions and the references were not prepared separately, but likewise used as stock solutions.
Subsequently, 6 mg of ILM model substrate plus 6 mL of dye solution and a reference solution comprising only 6 mL of dye solution were stirred for exactly 10 minutes and then centrifuged together for 8 minutes at 6000 rpm. The solutions were photographed and the carefully decanted supernatants analyzed by UV/vis spectroscopy. The ratios of the absorption maxima λmax with the model substrate to the absorption maximum λmax of the reference were calculated. This allowed the binding strengths of the individual dyes to be compared.

[2] = Solubility / precipitation of dye in phosphate-buffered saline; type: physicochemical; details: PBS
Text: Indocyanine green is one of the most important dyes in chromovitrectomy, particularly in the field of ILM peeling. The dye does, however, give rise to some problems and also to handling difficulties. Although it has long since been used for staining the inner limiting membrane and epiretinal membranes, studies have shown the dye to have numerous disadvantages.

Ratio λmax with MS and reference 588 nm ([1]; 0.005 mg/mL in PBS pH 7.4) [%] | Ratio λmax with MS and reference 632-635 nm ([1]; 0.005 mg/mL in PBS pH 7.4) [%] | Ratio λmax with MS and reference 588 nm ([1]; 0.01 mg/mL in PBS pH 7.4) [%] | Ratio λmax with MS and reference 632-635 nm ([1]; 0.01 mg/mL in PBS pH 7.4) [%] | Ratio λmax with MS and reference 588 nm ([1]; 0.02 mg/mL in PBS pH 7.4) [%] | Ratio λmax with MS and reference 632-635 nm ([1]; 0.02 mg/mL in PBS pH 7.4) [%] | Ratio λmax with MS and reference 588 nm ([1]; 0.04 mg/mL in PBS pH 7.4) [%] | Ratio λmax with MS and reference 632-635 nm ([1]; 0.04 mg/mL in PBS pH 7.4) [%] | Ratio λmax with MS and reference 588 nm ([1]; 0.08 mg/mL in PBS pH 7.4) [%] | Ratio λmax with MS and reference 632-635 nm ([1]; 0.08 mg/mL in PBS pH 7.4) [%] | Ratio λmax with MS and reference 588 nm ([1]; 0.16 mg/mL in PBS pH 7.4) [%] | Ratio λmax with MS and reference 632-635 nm ([1]; 0.16 mg/mL in PBS pH 7.4) [%] | SMILES | binding to the model substrate (in words) [1] | also measured
 |  |  |  |  |  |  |  |  |  |  |  | CCOc1ccc(Nc2ccc(/C(=C3C=C/C(=[N+](/CC)Cc4cccc(S(=O)(=O)[O-])c4)C=C/3C)c3ccc(N(CC)Cc4cccc(S(=O)(=O)[O-])c4)cc3C)cc2)cc1.[Na+] [BBG, Brilliant Blue G, reference compound] | good binding | binding of the dye ([1]; 0.005 mg/mL in PBS pH 7.4): 76%; Ratio λmax with MS and reference ([1]; 0.005 mg/mL in PBS pH 7.4, maximum about 585 nm): 24%; Ratio λmax with MS and reference ([1]; 0.01 mg/mL in PBS pH 7.4, maximum about 585 nm): 32%; Ratio λmax with MS and reference ([1]; 0.02 mg/mL in PBS pH 7.4, maximum about 585 nm): 44%; Ratio λmax with MS and reference ([1]; 0.04 mg/mL in PBS pH 7.4, maximum about 585 nm): 48%; binding of the dye ([1]; 0.08 mg/mL in PBS pH 7.4): 48%; Ratio λmax with MS and reference ([1]; 0.08 mg/mL in PBS pH 7.4, maximum about 585 nm): 62%
48 | 37 | 21 | 17 | 7 | 7 | 4 | 5 | 8 | 10 | 13 | 17 | CCCCCCCCCC[N+](C)(C)CCCNc1ccc(NCCC[N+](C)(C)CCCCCCCCCC)c2c1C(=O)c1ccccc1C2=O [7c, N,N′=(((9,10-dioxo-9,10-dihydroanthracene-1,4-diyl)bis(azanediyl))bis(propane-3,1-diyl))bis(N,N-dimethyldecan-1-aminium) Bromide] |  | 
 |  |  |  |  |  |  |  |  |  |  |  | CC1(C)C(/C=C/C=C/C=C/C=C2\N(CCCCS(=O)(=O)O)c3ccc4ccccc4c3C2(C)C)=[N+](CCCCS(=O)(=O)[O-])c2ccc3ccccc3c21 [ICG, Indocyanine green, reference compound] | positive binding | Ratio λmax with MS and reference ([1]; 0.005 mg/mL in double-distilled water, 779/780 nm): 47%; Ratio λmax with MS and reference ([1]; 0.01 mg/mL in double-distilled water, 779/780 nm): 95%; Ratio λmax with MS and reference ([1]; 0.02 mg/mL in double-distilled water, 779/780 nm): 42%; Ratio λmax with MS and reference ([1]; 0.04 mg/mL in double-distilled water, 779/780 nm): 85%; solubility in saline solutions / phosphate-buffered saline [2]: poor solubility; also recorded: causes the compound to precipitate
11 | 9 | 10 | 8 | 6 | 6 | 8 | 8 | 18 | 19 | 32 | 34 | CCCCCCCC[N+](C)(C)CCCNc1ccc(NCCC[N+](C)(C)CCCCCCCC)c2c1C(=O)c1ccccc1C2=O [7b, N,N′-(((9,10-dioxo-9,10-dihydroanthracene-1,4-diyl)bis(azanediyl))bis(propane-3,1-diyl))bis(N,N-dimethyloctan-1-aminium) bromide] |  | 
12 | 13 | 7 | 8 | 3 | 4 | 3 | 3 | 1 | 2 | 18 | 18 | CCCCCCCCCCCC[N+](C)(C)CCCNc1ccc(NCCC[N+](C)(C)CCCCCCCCCCCC)c2c1C(=O)c1ccccc1C2=O [7d, N,N′(((9,10-dioxo-9,10-dihydroanthracene-1,4-diyl)bis(azanediyl))bis(propane-3,1-diyl))bis(N,N-dimethyldodecan-1-aminium) Bromide] |  | 
54 | 54 | 52 | 52 | 54 | 55 | 57 | 58 | 67 | 69 | 76 | 78 | CCCC[N+](C)(C)CCCNc1ccc(NCCC[N+](C)(C)CCCC)c2c1C(=O)c1ccccc1C2=O [7a, N,N′=(((9,10-dioxo-9,10-dihydroanthracene-1,4-diyl)bis(azanediyl))bis(propane-3,1-diy1))bis(N,N-dimethylbutan-1-aminium) bromide] |  | 
